According to patent US7910624B1, “Compositions for the treatment of blood disorders” (The Trustees of Boston University, priority 1995, dated 2011):

What was measured:
[1] = tested on: erythroid cells (peripheral blood cells); experiment: Erythroid cell viability by Calcein-AM fluorescent staining (FIG. 2); assay type: cell-based; conditions: 0.5 mM
Experimental: Compositions were tested for the ability to directly stimulate erythroid cell growth. Cell growth stimulation is a useful property for an agent to be used to treat anemias and distinguishes such agents from the cytotoxic drugs currently being tested for treatment of hemoglobinopathies. Cell viability analyses were performed using fluorescent staining to detect living cells. Cells were in log phase of growth in 6-well dishes when used in proliferation assays. For enumeration of living cells, wells were washed once with medium to remove nonadherent or dead cells. Remaining live cells were labeled with 2 μM 2′,7′-bis-(carboxyethyl)-5-(and 6)-carboxy-fluorescein acetoxy-methyl ester (Calcein-AM) (Molecular Probes; Eugene, Oreg.) for 20 minutes at 37° C. and washed once. Fluorescence intensity of live cells was read on a CytoFluor 2300 Fluorescence Plate Scanner (Millipore; Bedford, Mass.) at excitation and emission wavelengths of 485 and 530 nm, respectively. The fluorescence intensity of a well was proportional to the number of living cells in the well. Background fluorescence was measured separately for each plate and subtracted from all readings. Each experiment was performed in triplicate or quadruplicate. The standard deviation (SD) of repetitive readings was less than 30% of the mean. Results are depicted in FIG. 2.

[2] = tested on: human erythroid cell line K562; experiment: Cell viability / growth of K562 by Calcein-AM fluorescence; assay type: cell-based; conditions: 0.5 mM; over 3 days
Experimental: Such activities might limit their utility for treatment of anemias such as occur in thalassemia, but alternatively would be useful for anticancer effects. To determine cell viability, human erythroid cells were cultured in the presence and absence of these compounds for 4 days and the amount of DNA fragmentation which occurred was measured.
Cell viability analyses were performed using fluorescent staining to detect living cells. Cells were in log phase of growth in 6-well dishes when used in proliferation assays. For enumeration of living cells, wells were washed once with medium to remove nonadherent or dead cells. Remaining live cells were labeled with Calcein-AM for 20 minutes at 37° C. and washed once. Fluorescence intensity of adherent live cells was read on a CytoFluor 2300 Fluorescence Plate Scanner (Millipore; Bedford, Mass.) at excitation and emission wavelengths of 485 and 530 nm, respectively. The fluorescence intensity of a well was proportional to the number of living cells in the well. Background fluorescence was measured separately for each plate and subtracted from all readings. Each experiment was performed in triplicate or quadruplicate. The standard deviation (SD) of repetitive readings was less than 30% of the mean.
At higher concentrations, still easily achievable in vivo, arginine butyrate (0.5 mM) and dihydrocinnamic acid (greater than 0.5 mM) inhibited growth of this tumor cell line by approximately 50%. Therefore, these compounds are also useful as anti-tumor agents.

[3] = tested on: erythroid progenitor cells cultured from human cord blood; experiment: Fetal globin expression in human cell cultures (3H-leucine labelled globin chains, densitometry); assay type: cell-based
Experimental: Compositions were tested for activity in inducing fetal globin expression and protein production in erythroid progenitor cells cultured from human cord blood and analyzed as described by S. P. Perrine et al. (Blood 74: 454-60, 1989). Briefly, mononuclear cells were cultured in IMDM with 30% fetal calf serum and 2 units erythropoietin per ml to induce erythroid differentiation. Colonies were harvested on day 12-13, incubated with radio-labelled (^3H) leucine, and further incubated in leucine-free media, still in the presence of compounds, overnight. Globin composition in the erythroid cells was analyzed by laser densitometry of electrophoretically separated globin chains stained with Coomassie blue, and by autoradiography. Treated cells were incubated for 12-13 days (Table 2, Experiments A and B) or overnight (Table 2, Experiment C) in the presence of the indicated compounds and compared to untreated control cells cultured from the same human subject.

[4] = tested on: BFU-e (burst forming unit-erythroid) colonies from peripheral blood mononuclear cells; experiment: Stimulation of erythroid proliferation in cell cultures (BFU-e colony growth); assay type: cell-based, human; conditions: 0.1 mM; 13-14 days; compared with control cultures
Experimental: Peripheral blood was collected from normal volunteers and patients with anemia due to sickle cell disease or thalassemia. Mononuclear cells were isolated by Ficoll-Hypaque (Pharmacia Biotech; Piscataway, N.J.) centrifugation and cultured in Iscove's Modified Dulbecco's Media (IMDM; GIBCO/BRL; Grand Island, N.Y.) supplemented with 10% fetal calf serum, 300 μg/ml glutamine, 3 units/ml IL-3 (Amgen; Thousand Oaks, Calif.), and 2 units/ml erythropoietin (Terry Fox Labs; Vancouver, B.C.). Chemical compounds were obtained from Sigma Chemical (St. Louis, Mo.) or Aldrich Chemical (Milwaukee, Wis.), unless otherwise indicated, and formulated into pharmaceutical compositions by dissolving in aqueous solutions of media or sterile water pH adjusted to about 7.4. Solutions were sterilized by passage at least once through 0.22 micron Nalgene filters and added to cell cultures at final concentrations that are pharmaceutically achievable in vivo (typically between about 0.1 mM to 2.0 mM). Cells were incubated with compounds for between 13-14 days at 37° C. in humidified 5% CO2, and fed and passed, as necessary. Colony growth, proportion of fetal globin-expressing cells and amounts of fetal globin production were assayed. Results are presented in Table 1 as BFU-e stimulation (colony growth).

anemic juvenile baboons = experiment: In vivo reticulocyte proliferation and globin expression in phlebotomized anemic baboons; set-up: species or system baboon
Experimental: Experiments were performed to determine if administration of the chemical compositions could induce fetal globin gene expression in an in vivo model similar to humans (S. P. Perrin et al., Brit. J. Haematol. 88:555-61, 1994). Briefly, chemicals were prepared as sterile pharmaceutical solutions in pH adjusted sterile water. A variety of chemical compositions were administered sequentially to some baboons. After administration of one compound, a wash-out period with no compound administration was maintained until reticulocytes returned to base line prior to administration of the next compound. This was done, at least partly, to compare the magnitude of response which occurred within the same individual animal to different compounds.
Briefly, juvenile female baboons (2 years old) were catheterized with arterial and venous catheters and phlebotomized gradually every day to maintain a moderate anemia of 7.0 to 7.5 grams hemoglobin/dl. Fetal reticulocytes, the newly produced red blood cells containing fetal globin, were assayed using a monoclonal antibody against fetal globin (HbF) as described by G. Dover et al. (Blood 67:735-38, 1986). Briefly, blood was stained with two antibodies, one specific for reticulocytes and another against fetal globin protein. The amount of antibody bound cells was determined by FACS analysis. Globin chain synthesis was assayed as described by J. B. Clegg et al. (J. Mol. Biol. 19:91-108, 1966). Briefly, reticulocytes were radio-labeled with ^3H-leucine which was incorporated in equal proportions into actively synthesized globin chains. After incubation in leucine-free media, cells were washed, and globin proteins were separated and purified by column chromatography. Radioactivity incorporated into each peak is compared and the ratios of gamma to gamma plus beta globin calculated. Each animal served as its own control with baseline monitoring assays performed for 4-6 weeks before any drug was administered. Phlebotomy was continued daily, so that peripheral HbF levels in the animals were not considered to be accurate over the short treatment time-frames and were not monitored. Safety monitoring was performed by frequent physical examinations, quantitation of food eaten, activity and frequent chemistry and hematology monitoring. Complete blood counts were assayed before, during and after treatment. Results presented were not adjusted to account for the daily phlebotomy.

bone marrow cells = conditions: continuous intravenous administration; cited from earlier work

Structure (SMILES) | erythroid cell growth and proliferation compared to untreated controls (FIG. 2) [1] | growth of K562 [2] | Gamma Increase ([3]; Exp. A, 0.1 mM, 12-13 days, above untreated cells) [%] | Gamma Increase ([3]; Exp. C, 0.1 mM, overnight) [%] | Gamma Increase ([3]; Exp. C, 0.2 mM, overnight) [%] | Gamma Increase ([3]; Exp. C, 0.5 mM, overnight) [%] | BFU-e Stimulation (colony growth) [4] [%] | fetal reticulocytes after treatment (anemic juvenile baboons; infused 4 days, 300 to 500 mg/kg per day, from 10%) [%] | red blood cell count after treatment (anemic juvenile baboons; intravenous 1,000 mg/kg/day, 4 days, from 2.3) | total hemoglobin after treatment (anemic juvenile baboons; intravenous 1,000 mg/kg/day, 4 days, from 6.6) [grams/dl] | packed red blood cell volume after treatment (anemic juvenile baboons; intravenous 1,000 mg/kg/day, 4 days, from 20.9%) | increase in γ globin mRNA of bone marrow cells (bone marrow cells)
O=C(O)CCc1ccccc1 [DHC, Dihydrocinnamic acid] | either had no effect or stimulated erythroid cell growth and proliferation | either did not inhibit, or slightly enhanced growth | 12.0 | 24 | 20.0 | 19 | 124 | 17 | 2.73 ×10^6 cells/μl | 7.3 | 22.7 % of the blood | 
Nc1ncn([C@@H]2O[C@H](CO)[C@@H](O)[C@H]2O)c(=O)n1 [AZA, 5-azacytidine] |  |  |  |  |  |  |  |  |  |  |  | five- to seven-fold
